# In US10093630B2, “Pyrazole compounds and methods of making and using same” (ABIDE THERAPEUTICS, INC., priority 2014, dated 2018):
# Tests used:
# Experiment in all cases: In vitro competitive activity-based protein profiling (gel-based, FP-Rh or HT-01 probe)
# Format in all cases: biochemical
# [1] = target: T1, PLA2G7 (Mus musculus, UniProt Q60963); settings: for inhibition at 1 µM: 1 μM inhibitor, read-out: % Inhibition at 1 μM, D = PLA2G7; for inhibition at 10 µM: 10 μM inhibitor, read-out: % Inhibition at 10 μM, D = PLA2G7
# T1 construct: Proteomes (mouse brain membrane fraction or cell lysates); from tissue; host or cells: mouse brain membrane fraction (or cell lysates, not specified)
# T1 sequence (Q60963 22-440): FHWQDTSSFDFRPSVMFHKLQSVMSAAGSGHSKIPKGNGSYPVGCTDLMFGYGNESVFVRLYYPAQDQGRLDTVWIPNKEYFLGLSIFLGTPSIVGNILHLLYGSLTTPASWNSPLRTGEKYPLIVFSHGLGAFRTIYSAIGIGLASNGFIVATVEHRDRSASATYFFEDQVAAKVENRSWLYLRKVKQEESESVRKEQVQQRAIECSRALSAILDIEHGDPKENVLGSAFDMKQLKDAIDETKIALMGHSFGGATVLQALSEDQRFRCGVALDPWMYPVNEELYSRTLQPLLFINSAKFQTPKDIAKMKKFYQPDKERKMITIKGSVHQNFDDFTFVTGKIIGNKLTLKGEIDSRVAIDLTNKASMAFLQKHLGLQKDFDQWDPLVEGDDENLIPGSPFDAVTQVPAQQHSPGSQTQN
# In short: (§1)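 Competitive labelling format in mouse brain membrane fractions or lysates at 1.0 mg/mL total protein: compounds preincubate 30 min at 37° C, activity probe FP-Rh or HT-01 then reacts 30 min at 37° C. Gel band fluorescence gives target activity.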
# [2] = target: T2, FAAH (Mus musculus, UniProt O08914); settings: for inhibition at 1 µM: 1 μM inhibitor, read-out: % Inhibition at 1 μM, B = FAAH; for inhibition at 10 µM: 10 μM inhibitor, read-out: % Inhibition at 10 μM, B = FAAH
# T2 construct: Proteomes (mouse brain membrane fraction or cell lysates); from tissue; host or cells: mouse brain membrane fraction (or cell lysates, not specified)
# T2 sequence (O08914 1-579): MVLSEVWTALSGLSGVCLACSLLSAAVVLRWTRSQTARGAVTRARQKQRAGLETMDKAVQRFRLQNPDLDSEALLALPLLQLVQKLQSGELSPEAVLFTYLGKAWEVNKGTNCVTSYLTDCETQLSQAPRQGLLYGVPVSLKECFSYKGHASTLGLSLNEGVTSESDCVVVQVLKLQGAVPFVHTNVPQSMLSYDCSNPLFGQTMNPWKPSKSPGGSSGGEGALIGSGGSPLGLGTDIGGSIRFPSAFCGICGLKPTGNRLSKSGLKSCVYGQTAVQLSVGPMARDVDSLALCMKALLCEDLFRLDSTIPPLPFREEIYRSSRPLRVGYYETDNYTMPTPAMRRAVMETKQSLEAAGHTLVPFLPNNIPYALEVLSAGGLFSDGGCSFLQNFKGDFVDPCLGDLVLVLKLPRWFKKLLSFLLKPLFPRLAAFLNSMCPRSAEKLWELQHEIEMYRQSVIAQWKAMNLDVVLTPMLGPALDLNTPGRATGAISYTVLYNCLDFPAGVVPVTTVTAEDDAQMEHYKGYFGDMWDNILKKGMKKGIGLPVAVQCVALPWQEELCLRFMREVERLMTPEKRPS
# In short: as §1
# [3] = target: T3, MAGL (Mus musculus, UniProt O35678); settings: for inhibition at 1 µM: 1 μM inhibitor; for inhibition at 10 µM: 10 μM inhibitor
# T3 construct: Proteomes (mouse brain membrane fraction or cell lysates); from tissue; host or cells: mouse brain membrane fraction (or cell lysates, not specified)
# T3 sequence (O35678 1-303): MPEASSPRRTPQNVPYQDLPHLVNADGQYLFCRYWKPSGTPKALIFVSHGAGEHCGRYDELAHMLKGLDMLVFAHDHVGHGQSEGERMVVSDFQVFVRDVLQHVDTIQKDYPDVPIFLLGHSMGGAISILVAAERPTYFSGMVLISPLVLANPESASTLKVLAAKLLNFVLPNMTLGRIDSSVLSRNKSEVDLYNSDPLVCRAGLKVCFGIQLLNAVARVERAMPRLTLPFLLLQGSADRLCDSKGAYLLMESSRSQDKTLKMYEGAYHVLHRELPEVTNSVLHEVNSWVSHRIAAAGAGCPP
# In short: as §1
# [4] = target: T4, ABHD6 (Mus musculus, UniProt Q8R2Y0); settings: for inhibition at 1 µM: 1 μM inhibitor, read-out: % Inhibition at 1 μM, C = ABHD6; for inhibition at 10 µM: 10 μM inhibitor, read-out: % Inhibition at 10 μM, C = ABHD6
# T4 construct: Proteomes (mouse brain membrane fraction or cell lysates); from tissue; host or cells: mouse brain membrane fraction (or cell lysates, not specified)
# T4 sequence (Q8R2Y0 1-336): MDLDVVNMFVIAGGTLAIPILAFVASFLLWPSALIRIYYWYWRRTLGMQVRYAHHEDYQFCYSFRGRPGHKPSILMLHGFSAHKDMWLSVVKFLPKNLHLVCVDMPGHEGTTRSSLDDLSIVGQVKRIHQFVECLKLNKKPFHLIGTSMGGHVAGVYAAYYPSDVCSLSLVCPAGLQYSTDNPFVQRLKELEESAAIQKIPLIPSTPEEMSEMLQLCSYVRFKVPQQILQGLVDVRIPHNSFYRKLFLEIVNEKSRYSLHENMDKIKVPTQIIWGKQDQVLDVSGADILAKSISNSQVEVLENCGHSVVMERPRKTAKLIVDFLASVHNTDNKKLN
# In short: as §1
Structure (SMILES),inhibition at 1 µM [1] [%],inhibition at 10 µM [1] [%],inhibition at 1 µM [2] [%],inhibition at 10 µM [2] [%],inhibition at 1 µM [3] [%],inhibition at 10 µM [3] [%],inhibition at 1 µM [4] [%],inhibition at 10 µM [4] [%],"IC50 ([2]; mouse brain membrane fraction or cell lysates, 30 min preincubation at 37° C., read-out: Mouse (IC50 value, nM) FAAH) [nM]","IC50 ([3]; mouse brain membrane fraction or cell lysates, 30 min preincubation at 37° C., read-out: Mouse (IC50 value, nM) MAGL) [nM]","IC50 ([4]; mouse brain membrane fraction or cell lysates, 30 min preincubation at 37° C., read-out: Mouse (IC50 value, nM) ABHD6) [nM]"
"O=C(c1cnn(C(=O)N2CCN(Cc3ccc4c(c3)OCO4)CC2)c1)N1CCCCC1 [Example 69, (4-(Benzo[d][1,3]dioxol-5-ylmethyl)piperazin-1-yl)(4-(piperidine-1-carbonyl)-1H-pyrazol-1-yl)methanone]",> 75,> 75,> 75,> 75,25 to 75,> 75,> 75,> 75,,,
"O=C(c1cnn(C(=O)N2CCN(Cc3ccncc3)CC2)c1)N1CCCCC1 [Example 70, Piperidin-1-yl(1-(4-(pyridin-4-ylmethyl)piperazine-1-carbonyl)-1H-pyrazol-4-yl)methanone]",> 75,> 75,< 25,25 to 75,< 25,< 25,25 to 75,> 75,,,
"O=C(c1cnn(C(=O)N2CCN(Cc3cccnc3)CC2)c1)N1CCCCC1 [Example 71, Piperidin-1-yl(1-(4-(pyridin-3-ylmethyl)piperazine-1-carbonyl)-1H-pyrazol-4-yl)methanone]",> 75,> 75,< 25,25 to 75,< 25,< 25,25 to 75,> 75,,,
"O=C(c1cnn(C(=O)N2CCN(Cc3ccccn3)CC2)c1)N1CCCCC1 [Example 72, Piperidin-1-yl(1-(4-(pyridin-2-ylmethyl)piperazine-1-carbonyl)-1H-pyrazol-4-yl)methanone]",> 75,> 75,< 25,> 75,< 25,< 25,< 25,> 75,,,
"O=C(c1cnn(C(=O)N2CCN(Cc3ccncn3)CC2)c1)N1CCCCC1 [Example 73, Piperidin-1-yl(1-(4-(pyrimidin-4-ylmethyl)piperazine-1-carbonyl)-1H-pyrazol-4-yl)methanone]",> 75,> 75,< 25,25 to 75,< 25,< 25,< 25,> 75,,,
"O=C(c1cnn(C(=O)N2CCN(Cc3nccs3)CC2)c1)N1CCCCC1 [Example 74, Piperidin-1-yl(1-(4-(thiazol-2-ylmethyl)piperazine-1-carbonyl)-1H-pyrazol-4-yl)methanone]",> 75,> 75,< 25,> 75,< 25,< 25,> 75,> 75,,,
"O=C(c1cnn(C(=O)N2CCN(Cc3cncnc3)CC2)c1)N1CCCCC1 [Example 75, Piperidin-1-yl(1-(4-(pyrimidin-5-ylmethyl)piperazine-1-carbonyl)-1H-pyrazol-4-yl)methanone]",> 75,> 75,< 25,< 25,< 25,< 25,< 25,> 75,,,
"Cc1cc(-c2ccccc2)ccc1CN1CCN(C(=O)n2cc(C(=O)N3CCCCC3)cn2)CC1 [Example 76, (4-((3-Methyl-[1,1′-biphenyl]-4-yl)methyl)piperazin-1-yl)(4-(piperidine-1-carbonyl)-1H-pyrazol-1-yl)methanone]",> 75,> 75,> 75,> 75,> 75,> 75,> 75,> 75,< 100,100 to 1000,100 to 1000
"O=C(c1cnn(C(=O)N2CCN(Cc3ccccn3)CC2)c1)N1CCOCC1 [Example 77, (4-(Morpholine-4-carbonyl)-1H-pyrazol-1-yl)(4-(pyridin-2-ylmethyl)piperazin-1-yl)methanone]",< 25,> 75,,< 25,,< 25,< 25,> 75,,,
"O=C(c1cnn(C(=O)N2CCN(Cc3ccc4c(c3)OCO4)CC2)c1)N1CCCC1 [Example 78, (4-(Benzo[d][1,3]dioxol-5-ylmethyl)piperazin-1-yl)(4-(pyrrolidine-1-carbonyl)-1H-pyrazol-1-yl)methanone]",< 25,> 75,> 75,> 75,< 25,> 75,> 75,> 75,,,
"O=C(c1cnn(C(=O)N2CCN(Cc3ccncc3)CC2)c1)N1CCCC1 [Example 79, (4-(Pyridin-4-ylmethyl)piperazin-1-yl)(4-(pyrrolidine-1-carbonyl)-1H-pyrazol-1-yl)methanone]",< 25,> 75,,25 to 75,,< 25,25 to 75,> 75,,,
"O=C(c1cnn(C(=O)N2CCN(Cc3cccnc3)CC2)c1)N1CCCC1 [Example 80, (4-(Pyridin-3-ylmethyl)piperazin-1-yl)(4-(pyrrolidine-1-carbonyl)-1H-pyrazol-1-yl)methanone]",< 25,> 75,,25 to 75,,< 25,25 to 75,> 75,,,
"O=C(c1cnn(C(=O)N2CCN(Cc3ccccn3)CC2)c1)N1CCCC1 [Example 81, (4-(Pyridin-2-ylmethyl)piperazin-1-yl)(4-(pyrrolidine-1-carbonyl)-1H-pyrazol-1-yl)methanone]",< 25,> 75,,> 75,,< 25,< 25,> 75,,,
"O=C(c1cnn(C(=O)N2CCN(Cc3ccncn3)CC2)c1)N1CCCC1 [Example 82, (4-(Pyrimidin-4-ylmethyl)piperazin-1-yl)(4-(pyrrolidine-1-carbonyl)-1H-pyrazol-1-yl)methanone]",< 25,> 75,,25 to 75,,< 25,< 25,> 75,,,
